Test results published in paper PMC5700161, “Structure of human immunoproteasome with a reversible and noncompetitive inhibitor that selectively inhibits activated lymphocytes” (Nature Communications, 2017).

Key:
β1i = β1i (Homo sapiens, UniProt P28065); assay: IC50 against β1i of human immunoproteasome (Ac-PAL-AMC); settings: read-out: IC50 1i - PAL (β1i); substrate Ac-PAL-AMC
Procedure: IC50s of all compounds against β5i and β5c (Table 2) and against β1i, β2i, β1c, and β2c (Supplementary Table 1) were determined following reported methods[8].

CD19+CD38+CD27+ ASCs = assay: Survival and apoptosis of differentiated antibody-secreting cells (ASCs) from PBMC, Annexin V/7-AAD; format: cell-based, human
Procedure: The immunoproteasome plays important roles in T cell differentiation and proliferation and dendritic cell activation and maturation[14],[20],[24]. However, its role in B cell differentiation is not well understood. […] Differentiated ASCs were then exposed to PKS21221 at indicated concentrations and cell survival was determined with Annexin V and 7-aminoactinomycin D (7-AAD) at three-time points (12-h, 24-h, and 48-h after treatment). […] In addition, the cytotoxicity of PKS21221 to different cell populations in PBMC was examined and compared to the cytotoxicity of bortezomib. PBMCs were incubated with PKS21221 or bortezomib, and the viability was assessed in T cells (CD3^+), B cells (CD19^+), monocytes (CD14^+) and dendritic cells (CD3^−CD19^−CD14^−CD16^−CD11c^+HLA-DR^+), respectively (Supplementary Fig. 13b–e).
PBMCs were cultured with or without IL-2/R848 for 5 days, followed by 12-h incubation with PKS21221 at different concentrations. a Representative flow cytometry plots of cells treated with IL-2 and R848 in the presence and absence of PKS21221. […] Annexin V^+7-AAD^− cells were referred as “Early apoptosis” population, and Annexin V^+7-AAD^+ cells were referred as “Dead” population. d Percentage of early apoptotic ASCs (left) and dead ASCs (right), after 12-h incubation with PKS21221.
Human peripheral blood samples were obtained from five different healthy volunteers (BWH Specimen Bank). Peripheral blood mononuclear cells (PBMCs) were isolated by density gradient centrifugation using Lymphoprep (StemCell Technologies). PBMCs were cultured at 1.5 × 10^6 cells per mL in RPMI 1640 media (Lonza), supplemented with 10% human serum (GemCell) (10% HS-RPMI), recombinant human IL-2 10 ng per mL (or 100 U per ml, BioLegend) and R848 1 µg per mL (Cayman Chemicals) for 5 days, at 37 °C, 5% CO2. PKS21221 in DMSO, or DMSO only for control, was added to the culture media on day 5, and cells were incubated for additional 12, 24, and 48 h.

proliferating T cells = assay: Apoptosis and viability of proliferating vs non-proliferating T cells; format: cell-based, human; settings: 4 days anti-CD3/anti-CD28, then 24 h; PKS21221 1 µM, BTZ 10 nM
Text: As we observed selective cytotoxicity of PKS21221 in activated B cells and ASCs compared to non-activated B cells, we asked whether this is the case in proliferating T cells. We activated human T cells to proliferate with anti-CD3 and anti-CD28 in the presence or absence of PKS21221 or bortezomib. […] To examine whether these inhibitors are cytotoxic preferentially to proliferating cells, we triggered T-cell proliferation with anti-CD3/anti-CD28 for 4 days (in the absence of inhibitors), treated the cells with PKS21221 for the next 24 h and determined cell survival with Annexin V and 7-AAD (Fig. 6c, d).
Fig. 6 Effect of PKS21221 and bortezomib (BTZ) on T-cell proliferation. T cells were isolated from human PBMC and stimulated with anti-CD3 (1 µg per ml) and anti-CD28 (1 µg per ml) for 4 days. […] Apoptosis c and viability d were assessed in proliferating and non-proliferating population of T cells. […]
T cells were isolated from human PBMCs using Human T-cell Isolation kit (StemCell Technologies, Cat#17951). […] Cells were counted and loaded with 5 μM CellTrace Violet (Thermo Fisher) in phosphate buffered saline (PBS) for 10 min at 37 °C, followed by wash in 10% fetal calf serum (FCS)-supplemented RPMI 1640 media. […] The viability and apoptosis were assessed using Annexin V Apoptosis Detection Kit (BD Biosciences). […]

Cc1ccc(S(=O)(=O)N[C@@H](CC(=O)NC(C)(C)C)C(=O)NCCNC(=O)c2cc(-c3ccccc3F)ccc2F)cc1 [PKS21221]
IC50 (β1i): > 50 µM | percentage of viable ASC (CD19+CD38+CD27+ ASCs; 12-h, 24-h, 48-h after treatment): decreased with PKS21221 treatment in a dose- and time-dependent manner | ASC percentage in ASC differentiating culture (CD19+CD38+CD27+ ASCs; added for 12 hours on Day 5): decreased the percentage of | apoptosis and cell death, proliferating vs non-proliferating T cells (proliferating T cells): induced apoptosis and cell death to a greater extent in proliferating T cells than in non-proliferating T cells
